Results taken from patent US20240239801A1, “PYRIMIDO[5,4,D]PYRIMIDINE COMPOUNDS, COMPOSITIONS COMPRISING THEM AND USES THEREOF” (Université de Montréal, priority 2021, published 2024).
Where two headings read alike, the source gives them in different places.

How the values were obtained:
ARAF = molecular target: T1, ARAF (Homo sapiens, UniProt P10398); assay: ARAF kinase activity assay (AlphaLISA p-MEK detection); format: biochemical; conditions: Table A
T1 sequence (P10398 310-570 limits assumed): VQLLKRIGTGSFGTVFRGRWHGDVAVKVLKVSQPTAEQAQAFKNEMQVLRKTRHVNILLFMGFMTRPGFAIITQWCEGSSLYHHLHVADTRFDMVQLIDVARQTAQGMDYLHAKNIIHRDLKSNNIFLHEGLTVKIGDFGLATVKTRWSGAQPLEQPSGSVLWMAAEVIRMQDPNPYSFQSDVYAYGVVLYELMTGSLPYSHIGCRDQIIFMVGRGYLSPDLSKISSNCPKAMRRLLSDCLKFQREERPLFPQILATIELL
Protocol: (§1) Compound preparation: solid samples of each substances in 1dram vials were suspended in DMSO (Fisher Scientific) at a stock concentration of 20 mM. Stocks were kept at −20° C. and protected from light. If solubility of the compound at 20 mM appeared to be an issue, the initial concentration of the DMSO stock was changed to 10 mM or 5 mM.
(§2) In vitro enzymatic reactions were used for evaluating compounds intrinsic activity against BRAF, CRAF and ARAF. For BRAF and CRAF, 0.375 nM of purified GST-tagged kinases (cat #B4062-10UG and cat #R1656-10UG respectively from Millipore Sigma) were incubated with 75 nM of kinase-dead MEK1 substrate (cat #40075; BPS Bioscience) in the presence of 10 μM of Ultrapure ATP (cat #V9102; Promega; part V915A) with and without the test compound in a buffer containing 50 mM HEPES pH 7.5, 10 mM MgCl2, 1 mM EDTA, 0.01% Brij-35 and 2 mM DTT. Separate reactions were performed with the MEK1 substrate and ATP as a blank control. ARAF, kinase reactions were rigorously the same with the exception that kinase concentration was raised to 3.75 nM (cat #1768-0000-1; Reaction Biology).
(§3) For compound treatment, 5 μL/well of test substance solution are placed in a 384-well proxyplate (Perkin Elmer) and mixed with 2× concentrated kinase reactions. The dilution series is selected so that nine concentrations cover a range from 100 nM to 0.01 nM. […] The final concentration of DMSO in the assay is set at 0.05%.
ARAF kinase reactions were carried out for a total of 2 hours at 30° C. and then stopped by addition of EDTA at a final concentration of 40 mM. Reactions were then detected using the AlphaLISA® SureFire® Ultra™ p-MEK ½ (Ser218/222) (PerkinElmer) kit. Reactions were performed with 5 μL of kinase reaction according to the manufacturer's specifications in 384-well proxyplates (Perkin Elmer) followed by overnight incubation of the reactions at room temperature in a humidified chamber. After completion of the detection reactions, the signals were recorded on a Synergy Neo2 plate reader (Biotek) equipped with AlphaLISA® filters. The effect of each compound dilution on the pMEK signal generated by ARAF reactions was expressed in % inhibition and calculated as follows. An internal 100% inhibition control (average of luminescence in kinase reactions comprising kinase dead MEK1 substrate alone) was included in each plate to measure of pMEK background and was subtracted from each data point. The average of DMSO (vehicle) controls (set as 0% inhibition) was also established and used to calculate % inhibition:
(§4) IC50 values were obtained by plotting the kinase inhibition values and fitting the dose-activity curves using a log(agonist) versus response−variable slope (four parameters) function using either GraphPadPrism (V7.0) or Dotmatics Screening Ultra platform. Standards included in the ARAF kinase assay were Belvarafenib (MedChem Express cat #HY-109080; CAS #1446113-23-0), LXH254 (MedChem Express cat #HY-112089; CAS #1800398-38-2) and BGB283 (cat #HY-18957; CAS #1446090-79-4).

BRAF = molecular target: T2, BRAF (Homo sapiens, UniProt P15056); assay: BRAF kinase activity assay (ADP-Glo); format: biochemical
T2 construct: GST; purchased Millipore Sigma B4062-10UG
Protocol: as §1, §2, §3
(§5) BRAF and CRAF kinase reactions were carried out for a total of 2 hours at 30° C. and then stopped by ½ dilution in ADP-Glo Reagent (cat #V9102; Promega; part V912C). Reactions were then incubated for 1 h at room temperature before addition of one volume of Kinase Detection Reagent (cat #V9102; Promega; part V917A). Plates were then equilibrated at room temperature for 30 minutes before detection of luminescence on a Synergy Neo2 plate reader (Biotek). The effect of each compound dilution on BRAF and CRAF kinase activity was expressed as % inhibition and calculated as follows. First, the internal 100% inhibition control (average of luminescence in kinase reactions comprising kinase dead MEK1 substrate alone) was subtracted from each data point. The average of DMSO (vehicle) controls (set as 0% inhibition) was established and used to calculate % inhibition:
as §4

CRAF = CRAF (Homo sapiens, UniProt P04049); assay: CRAF kinase activity assay (ADP-Glo); format: biochemical
Protocol: as §1, §2, §3, §5, §4

HCT116 pERK = assay: Phospho-ERK inhibition, AlphaLISA SureFire Ultra p-ERK 1/2; format: cell-based, human; conditions: for HCT116 (Ymin %): lowest value of the pERK IC50 curve; for HCT116 pERK % Ymin (lowest value of the IC50 curve): value in brackets, Ymin above −20% = minimal or no paradoxical induction
Summary of the method: (§6)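 Cells plated in RPMI-1640 with 5% FBS, held overnight, then exposed 1 h to ten-point compound dilutions (top 30 or 10 μM down to 0.33 nM; 0.5% DMSO). Lysates read for p-ERK1/2 (Thr202/Tyr204) by AlphaLISA; % inhibition relative to DMSO after subtracting a 1 μM trametinib background; IC50 from four-parameter fit.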

SW480 pERK = assay: as above; format: cell-based, human; conditions: for IC50: 1 h treatment; for SW480 (Ymin %): lowest value of the pERK IC50 curve
Summary of the method: as §6

[1] = test system: RAS-mutant HCT-116 cells pERK/pMEK; assay: Immunoblot analysis of pERK and pMEK; format: cell-based, human; conditions: FIG. 2, 1 h treatment
Protocol: For immunoblotting analysis, 500,000 HCT-116 cells were plated in 1 mL of complete RPMI-1640 growth medium in 24-well flat-bottomed transparent dishes (Costar). Cells were maintained overnight at 37° C. under 5% CO2 before treatment with compounds' dilution series for one hour. Cells were then washed once in PBS and lized in 250 μL of Igepal Lysis Buffer (50 mM Tris-HCl pH 7.5, 150 mM NaCl, 1% Igepal-CA630, 1 mM EDTA, 10% Glycerol) supplemented with Leupeptin, Aprotinin, PMSF, phosphatase inhibitor cocktail (Sigma) and Na3VO4 at 4° C. for 15 minutes with gentle rocking. Cell extracts were then cleared by centrifugation at 20,000 g at 4° C. for 10 minutes. Cleared lysates were then transferred on ice in fresh tubes and then boiled in sample loading buffer (100 mM Tris-HCl pH 6.8, 4% SDS, 0.2% bromophenol blue, 20% glycerol, 200 mM β-mercaptoethanol) for 5 minutes prior to fractionation by SDS-PAGE and transfer to nitrocellulose membranes (PALL). […]

[2] = Table 3, read-out: SW480 PERK IC50

T2 sequence (P15056 whole entry): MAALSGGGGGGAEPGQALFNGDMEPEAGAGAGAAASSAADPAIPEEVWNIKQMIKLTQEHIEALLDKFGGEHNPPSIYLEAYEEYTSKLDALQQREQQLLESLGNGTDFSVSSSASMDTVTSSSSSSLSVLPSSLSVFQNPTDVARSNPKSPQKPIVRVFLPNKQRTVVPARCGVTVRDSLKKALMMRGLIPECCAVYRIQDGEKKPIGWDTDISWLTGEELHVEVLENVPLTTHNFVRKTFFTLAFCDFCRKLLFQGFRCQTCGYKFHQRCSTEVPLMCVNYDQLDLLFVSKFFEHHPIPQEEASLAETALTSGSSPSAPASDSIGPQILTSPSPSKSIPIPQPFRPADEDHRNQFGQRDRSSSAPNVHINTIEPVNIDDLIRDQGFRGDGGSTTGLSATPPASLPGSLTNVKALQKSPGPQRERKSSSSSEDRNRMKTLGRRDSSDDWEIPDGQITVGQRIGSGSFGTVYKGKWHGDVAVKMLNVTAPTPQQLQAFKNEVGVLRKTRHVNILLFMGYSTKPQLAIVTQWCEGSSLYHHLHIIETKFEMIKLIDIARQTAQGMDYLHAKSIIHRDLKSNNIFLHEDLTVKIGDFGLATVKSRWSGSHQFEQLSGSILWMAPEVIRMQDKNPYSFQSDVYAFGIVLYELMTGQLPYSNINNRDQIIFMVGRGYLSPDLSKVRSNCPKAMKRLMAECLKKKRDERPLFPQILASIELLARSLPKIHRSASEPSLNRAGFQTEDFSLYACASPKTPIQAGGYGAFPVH
CRAF, sequence (P04049 whole entry): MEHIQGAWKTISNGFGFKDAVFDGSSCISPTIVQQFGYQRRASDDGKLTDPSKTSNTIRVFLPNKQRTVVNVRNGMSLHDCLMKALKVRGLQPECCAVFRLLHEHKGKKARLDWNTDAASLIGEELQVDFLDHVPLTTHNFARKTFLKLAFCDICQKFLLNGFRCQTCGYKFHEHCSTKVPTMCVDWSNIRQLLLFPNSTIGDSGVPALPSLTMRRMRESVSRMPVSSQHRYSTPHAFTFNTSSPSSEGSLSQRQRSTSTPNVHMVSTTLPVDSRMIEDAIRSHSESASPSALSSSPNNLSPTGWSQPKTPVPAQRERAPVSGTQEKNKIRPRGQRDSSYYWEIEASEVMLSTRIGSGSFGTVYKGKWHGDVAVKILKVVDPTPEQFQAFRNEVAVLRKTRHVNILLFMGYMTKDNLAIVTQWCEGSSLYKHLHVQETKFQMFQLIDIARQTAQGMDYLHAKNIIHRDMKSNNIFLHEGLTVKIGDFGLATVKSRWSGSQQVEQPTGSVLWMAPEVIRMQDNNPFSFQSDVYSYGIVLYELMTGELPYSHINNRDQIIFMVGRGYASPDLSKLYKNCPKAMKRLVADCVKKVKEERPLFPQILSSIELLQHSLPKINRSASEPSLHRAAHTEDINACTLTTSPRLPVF

Row | Compound | IC50 (BRAF; Table 3) | IC50 (CRAF; Table 3) | IC50 (HCT116 pERK; Table 3, 1 h treatment) | HCT116 (Ymin %) (HCT116 pERK; Table 3) | SW480 (Ymin %) (SW480 pERK; Table 3) | further results
1 | O=C1CCc2c(Oc3ccc4c(c3)[C@@H]3[C@H](O4)[C@H]3c3nc4ccc(C(F)(F)F)cc4[nH]3)ccnc2N1 [BGB283, reference compound] | – | – | – | – | – | IC50 (ARAF): > 20 nM
2 | COc1ccc(S(=O)(=O)Nc2ccc(F)c(Nc3ncnc4cnc(SC)nc34)c2F)cc1 [Example 1] | – | – | – | – | – | IC50 (BRAF; Table 2): > 10 nM; IC50 (CRAF; Table 2): > 50 nM; IC50 (HCT116 pERK; Homo sapiens, HCT-116, Table 2, 1 h treatment): 10000 to 30000 nM; IC50 (SW480 pERK; Homo sapiens, SW480, Table 2, read-out: SW480 PERK IC50 (UM)): 1000 to 10000 nM; SW480 (Ymin %) (SW480 pERK; Table 2): 6%
3 | COc1ccc(S(=O)(=O)Nc2ccc(F)c(Nc3ncnc4cnc(N5CC[C@H](F)C5)nc34)c2F)c(C)c1 [Example 57] | > 10 nM | > 50 nM | 1000 to 10000 nM | −2% | −2% | IC50 (SW480 pERK; [2]): 1000 to 10000 nM
4 | Cc1ncn(-c2ncc3ncnc(Nc4c(F)ccc(NS(=O)(=O)c5ccc(Cl)cc5Cl)c4F)c3n2)c1C [Example 62] | 1 to 10 nM | 10 to 50 nM | 1000 to 10000 nM | 11% | 2% | IC50 (SW480 pERK; [2]): 500 to 1000 nM
5 | O=S(=O)(Nc1ccc(F)c(Nc2ncnc3cnc(-n4cnc5ccccc54)nc23)c1F)c1ccc(Cl)cc1Cl [Example 63] | 1 to 10 nM | < 10 nM | 1000 to 10000 nM | −2% | 1% | IC50 (SW480 pERK; [2]): 1000 to 10000 nM
6 | O=S(=O)(Nc1ccc(F)c(Nc2ncnc3cnc(-n4cnc5ccccc54)nc23)c1F)c1cccc(Cl)c1Cl [Example 81] | < 1 nM | < 10 nM | – | – | 3% | IC50 (HCT116 pERK; Homo sapiens, HCT-116, Table 3, 1 h treatment): < 500 nM; IC50 (SW480 pERK; Homo sapiens, SW480, Table 3, read-out: SW480 PERK IC50): < 500 nM
7 | Cc1c(F)cccc1S(=O)(=O)Nc1ccc(F)c(Nc2ncnc3cnc(-n4cnc5c(N)cccc54)nc23)c1F [Example 82] | 1 to 10 nM | < 10 nM | < 500 nM | −10% | 3.2% | IC50 (SW480 pERK; [2]): < 500 nM
8 | Cc1c(F)cccc1S(=O)(=O)Nc1ccc(F)c(Nc2ncnc3cnc(-n4cnc5ccccc54)nc23)c1F [Example 83] | 1 to 10 nM | < 10 nM | < 500 nM | −10% | −2% | IC50 (SW480 pERK; [2]): < 500 nM
9 | COc1ccc(S(=O)(=O)Nc2ccc(F)c(Nc3ncnc4c(N)nc(-n5cnc6ccccc65)nc34)c2F)c(C)c1 [Example 88] | – | – | – | – | – | IC50 (BRAF; Table 4): > 10 nM; IC50 (CRAF; Table 4): > 50 nM; IC50 (HCT116 pERK; Homo sapiens, HCT-116, Table 4, 1 h treatment): 1000 to 10000 nM; IC50 (SW480 pERK; Homo sapiens, SW480, Table 4, read-out: SW480 PERK IC50): 1000 to 10000 nM; SW480 (Ymin %) (SW480 pERK; Table 4): 2%
10 | O=S(=O)(Nc1cc(F)c(F)c(Nc2ncnc3cnc(-n4cnc5ccccc54)nc23)c1F)c1cccc(Cl)c1Cl [Example 160] | – | – | – | – | – | IC50 (BRAF; BRAF biochemical kinase assay): 1 to 10 nM; IC50 (CRAF; CRAF biochemical kinase assay): < 10 nM; IC50 (HCT116 pERK; HCT116 cells, pERK): < 500 nM; HCT116 pERK % Ymin (lowest value of the IC50 curve) (HCT116 pERK; HCT116 cells): −9%
11 | O=S(=O)(Nc1cc(F)c(F)c(Nc2ncnc3cnc(-n4nnc5ccccc54)nc23)c1F)c1cccc(Cl)c1Cl [Example 161] | – | – | – | – | – | IC50 (BRAF; BRAF biochemical kinase assay): 1 to 10 nM; IC50 (CRAF; CRAF biochemical kinase assay): < 10 nM; IC50 (HCT116 pERK; HCT116 cells, pERK): 1000 to 10000 nM; HCT116 pERK % Ymin (lowest value of the IC50 curve) (HCT116 pERK; HCT116 cells): −2.7%
12 | Cc1ccc(NC(=O)c2ccnc(C(F)(F)F)c2)cc1-c1cc(OCCO)nc(N2CCOCC2)c1 [LXH254, reference compound] | – | – | – | – | – | IC50 (ARAF): > 20 nM
13 | CCCS(=O)(=O)Nc1ccc(F)c(C(=O)c2c[nH]c3ncc(Cl)cc23)c1F [PLX4720, reference compound] | – | – | – | – | – | YMIN of pERK IC50 dose response curve (HCT116 pERK; FIG. 1, RAS-mutant HCT116 cells): ~−600%; paradoxical induction of pERK or pMEK signaling (immunoblot) [1]: induces the pathway

Further lines, with some results ahead:

Row | IC50 (BRAF; Table 3) | IC50 (CRAF; Table 3) | IC50 (HCT116 pERK; Table 3, 1 h treatment) | Compound | HCT116 (Ymin %) (HCT116 pERK; Table 3) | SW480 (Ymin %) (SW480 pERK; Table 3) | further results
14 | 1 to 10 nM | > 50 nM | < 500 nM | CCC1(O)CCN(c2cccc3c2ncn3-c2ncc3ncnc(Nc4c(F)ccc(NS(=O)(=O)c5ccc(F)c(F)c5C)c4F)c3n2)CC1 [Example 155] | −8% | – | –
15 | 1 to 10 nM | < 10 nM | 500 to 1000 nM | O=S(=O)(Nc1ccc(F)c(Nc2ncnc3cnc(-n4cnc5ccccc54)nc23)c1F)c1cccc(Cl)c1C(F)(F)F [Example 156] | – | – | –
16 | < 1 nM | < 10 nM | < 500 nM | O=S(=O)(Nc1ccc(F)c(Nc2ncnc3cnc(-n4cnc5ccccc54)nc23)c1F)c1scc(Cl)c1Cl [Example 157] | 0% | – | –
17 | 1 to 10 nM | < 10 nM | < 500 nM | CCC1(O)CCN(c2cccc3c2ncn3-c2ncc3ncnc(Nc4c(F)ccc(NS(=O)(=O)c5cccc(Cl)c5C(F)(F)F)c4F)c3n2)CC1 [Example 158] | −1% | – | –
